Source: the NIST ThermoML archive (doi:10.1007/s10765-009-0584-4)
Values joined by “and” are separate entries in the source; they are usually repeats but may differ in a detail not shown here. Identical values can stand only once.

Settings: 101.33 kPa, Liquid; for electrical conductivity: Parallel Plate Conductive Cell; for kinematic viscosity: Capillary tube (Ostwald / Ubbelohde) method

CCCCCC[n+]1ccn(C)c1.O=S(=O)([N-]S(=O)(=O)C(F)(F)F)C(F)(F)F
Settings | electrical conductivity | kinematic viscosity [m2/s]
278.15 K | 0.0783 S/m | –
283.15 K | 0.104 S/m | –
288.15 K | 0.136 S/m | –
293.15 K | 0.173 S/m | –
298.15 K | 0.217 S/m and 0.218 S/m | 5.06e-05
303.15 K | 0.268 S/m | 4.04e-05
308.15 K | 0.326 S/m | –
313.15 K | 0.391 S/m | –
313.16 K | – | 2.7e-05
323.15 K | 0.543 S/m | 1.9e-05
333.15 K | 0.726 S/m | 1.39e-05
343.15 K | – | 1.06e-05
